Patent US9695155B2, “Herbicidal substituted pyrimidinyloxy benzene compounds” (E. I. DU PONT DE NEMOURS AND COMPANY, priority 2013, dated 2017)

How the values were obtained:
[1] = test system: barnyardgrass; assay: Test A postemergence; type: in vivo, Echinochloa crus-galli
Method in brief: (§1)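 Visual injury scored 0–100 (100 = complete control) against untreated controls about 10 days after treatment in a greenhouse. Test chemicals, formulated with surfactant in non-phytotoxic solvent, were sprayed on soil preemergence or on 2-10 cm, one- to two-leaf plants postemergence.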

[2] = test system: blackgrass; assay: Test A postemergence; type: in vivo, Alopecurus myosuroides; conditions: for Blackgrass plant response rating: 125 g ai/ha
Method in brief: as §1

[3] = test system: sedge, umbrella; assay: Test B flooded paddy test; type: in vivo, Cyperus difformis; conditions: Flood, 250 g ai/ha, 0 to 100 scale where 0 is no effect and 100 is complete control
Method in brief: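 Evaluation is visual, against untreated controls, 13 to 15 days after treatment. Before treatment, plants reached the 2-leaf stage; pots were then flooded 3 cm deep, compound was added to the water, and that level was maintained. Ratings run 0 to 100, with 100 meaning complete control.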

[4] = test system: johnsongrass; assay: Test C preemergence; type: in vivo, Sorghum halepense; conditions: preemergence
Method in brief: (§2)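 Plants were kept under greenhouse conditions for 13–15 days following spray. Pre-emergent application went to soil (loam–sand), post-emergent to foliage at 1–4 leaves. Evaluation: visual, percent control against untreated checks.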

[5] = test system: soybean; assay: Test C preemergence; type: in vivo, Glycine max; conditions: preemergence
Method in brief: as §2

[6] = test system: oilseed rape; assay: Test C preemergence; type: in vivo, Brassica napus; conditions: preemergence
Method in brief: as §2

[7] = test system: waterhemp; assay: Test C preemergence; type: in vivo, Amaranthus rudis; conditions: preemergence
Method in brief: as §2

[8] = test system: oilseed rape; assay: Test C postemergence; type: in vivo, Brassica napus; conditions: for Oilseed Rape plant response rating: 31 g ai/ha, 13 to 15 days
Method in brief: as §2

[9] = test system: velvetleaf; assay: Test C postemergence; type: in vivo, Abutilon theophrasti; conditions: for Velvetleaf plant response rating: 31 g ai/ha, 13 to 15 days
Method in brief: as §2

[10] = test system: chickweed; assay: Test C postemergence; type: in vivo, Stellaria media; conditions: for Chickweed plant response rating: 31 g ai/ha, 13 to 15 days
Method in brief: as §2

[11] = 0 to 100 scale where 0 is no effect and 100 is complete control
[12] = 500 g ai/ha, 0 to 100 scale where 0 is no effect and 100 is complete control
[13] = 16 g ai/ha, scale 0 to 100 (0 no effect, 100 complete control)
[14] = 62 g ai/ha, scale 0 (no effect) to 100 (complete control)
[15] = 125 g ai/ha, scale 0 (no effect) to 100 (complete control)
[16] = 16 g ai/ha, postemergence, 0 is no effect, 100 is complete control
[17] = postemergence, visual rating, scale 0 to 100 (0 no effect, 100 complete control)
[18] = 125 g ai/ha, postemergence, visual rating, scale 0 to 100 (0 no effect, 100 complete control)
[19] = Postemergence, 62 g ai/ha, scale 0 to 100 (0 no effect, 100 complete control)
[20] = 1000 g ai/ha, 0 to 100 scale, 0 no effect, 100 complete control

`FC(F)(F)COc1cnn(-c2ccccc2Oc2ncc(Cl)cn2)c1` [Compound 138, 5-chloro-2-[2-[4-(2,2,2-trifluoroethoxy)-1H-pyrazol-1-yl]phenoxy]pyrimidine] was tested, and the pest or weed control at 125 g/ha ([1]; Echinochloa crus-galli, post-emergence, 240 h, 125 g ai/ha, 0 to 100 scale where 0 is no effect and 100 is complete control, read-out: Barnyardgrass plant response rating) was 80%, the pest or weed control at 500 g/ha ([1]; Echinochloa crus-galli, post-emergence, 240 h, 500 g ai/ha, 0 to 100 scale where 0 is no effect and 100 is complete control, read-out: Plant response rating, Barnyardgrass) was 100% and the “Blackgrass plant response rating” value [2, 11] was 50. The “Plant response rating, Blackgrass” value [2, 12] was 90, the pest or weed control at 250 g/ha ([3]; Cyperus difformis, read-out: Plant response rating, Sedge, Umbrella) was 75% and the pest or weed control at 16 g/ha ([4]; Sorghum halepense, pre-emergence, 16 g ai/ha, scale 0 to 100 (0 no effect, 100 complete control), read-out: Johnsongrass plant response rating) was 0%. It also gave a pest or weed control at 62 g/ha ([4]; Sorghum halepense, pre-emergence, 62 g ai/ha, scale 0 (no effect) to 100 (complete control), read-out: Johnsongrass plant response rating) of 40%, a pest or weed control at 125 g/ha ([4]; Sorghum halepense, pre-emergence, 125 g ai/ha, scale 0 (no effect) to 100 (complete control), read-out: Johnsongrass plant response rating) of 65% and a plant injury at 16 g/ha ([5]; Glycine max, pre-emergence, 16 g ai/ha, scale 0 to 100 (0 no effect, 100 complete control), read-out: Soybean plant response rating) of 20%. For the same compound, the plant injury at 62 g/ha ([5]; Glycine max, pre-emergence, 62 g ai/ha, scale 0 (no effect) to 100 (complete control), read-out: Soybean plant response rating) was 90%, the plant injury at 125 g/ha ([5]; Glycine max, pre-emergence, 125 g ai/ha, scale 0 (no effect) to 100 (complete control), read-out: Soybean plant response rating) was 90% and the plant injury at 16 g/ha ([6]; Brassica napus, pre-emergence, 16 g ai/ha, scale 0 to 100 (0 no effect, 100 complete control), read-out: Oilseed Rape plant response rating) was 80%. It also gave a plant injury at 62 g/ha ([6]; Brassica napus, pre-emergence, 62 g ai/ha, scale 0 (no effect) to 100 (complete control), read-out: Oilseed Rape plant response rating) of 100%, a plant injury at 125 g/ha ([6]; Brassica napus, pre-emergence, 125 g ai/ha, scale 0 (no effect) to 100 (complete control), read-out: Oilseed Rape plant response rating) of 100% and a pest or weed control at 16 g/ha ([7]; Amaranthus tuberculatus, pre-emergence, 16 g ai/ha, scale 0 to 100 (0 no effect, 100 complete control), read-out: Waterhemp plant response rating) of 100%. For the same compound, the pest or weed control at 62 g/ha ([7]; Amaranthus tuberculatus, pre-emergence, 62 g ai/ha, scale 0 (no effect) to 100 (complete control), read-out: Waterhemp plant response rating) was 100%, the pest or weed control at 125 g/ha ([7]; Amaranthus tuberculatus, pre-emergence, 125 g ai/ha, scale 0 (no effect) to 100 (complete control), read-out: Waterhemp plant response rating) was 100% and the plant injury at 16 g/ha ([8]; Brassica napus, post-emergence, 16 g ai/ha, postemergence, 0 is no effect, 100 is complete control, read-out: Plant response rating (0 to 100), Oilseed Rape) was 5%. It also gave a plant injury at 125 g/ha ([8]; Brassica napus, post-emergence, 125 g ai/ha, postemergence, visual rating, scale 0 to 100 (0 no effect, 100 complete control), read-out: Plant response rating, Oilseed Rape) of 80%, a plant injury at 62 g/ha ([8]; Brassica napus, post-emergence, Postemergence, 62 g ai/ha, scale 0 to 100 (0 no effect, 100 complete control), read-out: Plant response rating, Oilseed Rape) of 60% and a pest or weed control at 16 g/ha ([9]; Abutilon theophrasti, post-emergence, 16 g ai/ha, postemergence, 0 is no effect, 100 is complete control, read-out: Plant response rating (0 to 100), Velvetleaf) of 30%. The pest or weed control at 125 g/ha ([9]; Abutilon theophrasti, post-emergence, 125 g ai/ha, postemergence, visual rating, scale 0 to 100 (0 no effect, 100 complete control), read-out: Plant response rating, Velvetleaf) was 55%, the pest or weed control at 62 g/ha ([9]; Abutilon theophrasti, post-emergence, Postemergence, 62 g ai/ha, scale 0 to 100 (0 no effect, 100 complete control), read-out: Plant response rating, Velvetleaf) was 20% and the pest or weed control at 16 g/ha ([10]; Stellaria media, post-emergence, 16 g ai/ha, postemergence, 0 is no effect, 100 is complete control, read-out: Plant response rating (0 to 100), Chickweed) was 5%. The pest or weed control at 125 g/ha ([10]; Stellaria media, post-emergence, 125 g ai/ha, postemergence, visual rating, scale 0 to 100 (0 no effect, 100 complete control), read-out: Plant response rating, Chickweed) was 55% and the pest or weed control at 62 g/ha ([10]; Stellaria media, post-emergence, Postemergence, 62 g ai/ha, scale 0 to 100 (0 no effect, 100 complete control), read-out: Plant response rating, Chickweed) was 50%.

In the case of `CCCOc1cnn(-c2c(C#N)cccc2Oc2ncc(Cl)cn2)c1` [Compound 150], the “Barnyardgrass plant response rating” value ([1]; 125 g ai/ha, 0 to 100 scale where 0 is no effect and 100 is complete control) is reported as 100, the “Blackgrass plant response rating” value [2, 11] is reported as 100 and the “Plant response rating, Blackgrass” value [2, 12] is reported as 100. The “Plant response rating, Sedge, Umbrella” value [3] was 85, the “Johnsongrass plant response rating” value [4, 13] was 0 and the “Johnsongrass plant response rating” value [4, 14] was 70. For the same compound, the “Johnsongrass plant response rating” value [4, 15] was 80, the “Soybean plant response rating” value [5, 13] was 0 and the “Soybean plant response rating” value [5, 14] was 45. The “Soybean plant response rating” value [5, 15] was 90, the “Oilseed Rape plant response rating” value [6, 13] was 0 and the “Oilseed Rape plant response rating” value [6, 14] was 90. For the same compound, the “Oilseed Rape plant response rating” value [6, 15] was 100, the “Waterhemp plant response rating” value [7, 13] was 20 and the “Waterhemp plant response rating” value [7, 14] was 98. For the same compound, the “Waterhemp plant response rating” value [7, 15] was 98, the “Plant response rating (0 to 100), Oilseed Rape” value [8, 16] was 5 and the “Oilseed Rape plant response rating” value [8, 17] was 40. For the same compound, the “Plant response rating, Oilseed Rape” value [8, 18] was 50, the “Plant response rating, Oilseed Rape” value [8, 19] was 45 and the “Plant response rating (0 to 100), Velvetleaf” value [9, 16] was 20. The “Velvetleaf plant response rating” value [9, 17] was 25, the “Plant response rating, Velvetleaf” value [9, 18] was 30 and the “Plant response rating, Velvetleaf” value [9, 19] was 30. The “Plant response rating (0 to 100), Chickweed” value [10, 16] was 50, the “Chickweed plant response rating” value [10, 17] was 65 and the “Plant response rating, Chickweed” value [10, 18] was 70. For the same compound, the “Plant response rating, Chickweed” value [10, 19] was 65.

For `FCc1cn(-c2c(F)cccc2Oc2ncc(Cl)cn2)nn1` [Compound 154], the “Plant response rating, Barnyardgrass” value [1, 20] was 100, the “Plant response rating, Blackgrass” value [2, 20] was 90 and the “Plant response rating, Sedge, Umbrella” value [3] was 30. For the same compound, the “Johnsongrass plant response rating” value [4, 13] was 0, the “Johnsongrass plant response rating” value [4, 14] was 40 and the “Johnsongrass plant response rating” value [4, 15] was 85. The “Soybean plant response rating” value [5, 13] was 50, the “Soybean plant response rating” value [5, 14] was 80 and the “Soybean plant response rating” value [5, 15] was 95. For the same compound, the “Oilseed Rape plant response rating” value [6, 13] was 98, the “Oilseed Rape plant response rating” value [6, 14] was 100 and the “Oilseed Rape plant response rating” value [6, 15] was 100. For the same compound, the “Waterhemp plant response rating” value [7, 13] was 100, the “Waterhemp plant response rating” value [7, 14] was 100 and the “Waterhemp plant response rating” value [7, 15] was 100. For the same compound, the “Plant response rating (0 to 100), Oilseed Rape” value [8, 16] was 40, the “Oilseed Rape plant response rating” value [8, 17] was 50 and the “Plant response rating, Oilseed Rape” value [8, 18] was 80. The “Plant response rating, Oilseed Rape” value [8, 19] was 50, the “Plant response rating (0 to 100), Velvetleaf” value [9, 16] was 25 and the “Velvetleaf plant response rating” value [9, 17] was 45. The “Plant response rating, Velvetleaf” value [9, 18] was 80, the “Plant response rating, Velvetleaf” value [9, 19] was 70 and the “Plant response rating (0 to 100), Chickweed” value [10, 16] was 5. For the same compound, the “Chickweed plant response rating” value [10, 17] was 5, the “Plant response rating, Chickweed” value [10, 18] was 60 and the “Plant response rating, Chickweed” value [10, 19] was 10.
